Where a name gives a salt, the structure may show the parent alone. Read-outs that look alike come from different tables or passages of the source.
Legend:
[1] = test system: HIV-1; assay: in vitro anti-HIV screening (NCI XTT soluble-formazan assay, protection of HIV-1-infected CEM T4 lymphocytes from cytolysis); format: cell-based; conditions: for EC50 / inhibition at 63.2 µM / inhibition at 200 µM / inhibition at 20 µM / inhibition at 2 µM / inhibition at 0.2 µM / inhibition at 6.33 µM / inhibition at 0.634 µM / inhibition at 0.0635 µM: Human immunodeficiency virus 1, CCRF-CEM; for EC50: 144 h, HIV-1-infected CEM cells, 6 days, approximate values, read-out: EC50 (Molar), 50% effective concentration; for inhibition at 63.2 µM / inhibition at 200 µM / inhibition at 20 µM / inhibition at 2 µM / inhibition at 0.2 µM / inhibition at 6.33 µM / inhibition at 0.634 µM / inhibition at 0.0635 µM: read-out: Percent of Protection; for inhibition at 200 µM / activity at 200 µM: 2.00 × 10^-4 Molar; for inhibition at 20 µM / activity at 20 µM: 2.00 × 10^-5 Molar; for inhibition at 2 µM / activity at 2 µM: 2.00 × 10^-6 Molar; for inhibition at 0.2 µM / activity at 0.2 µM: 2.00 × 10^-7 Molar; for inhibition at 6.33 µM / activity at 6.33 µM: 6.33 × 10^-6 Molar; for inhibition at 0.634 µM / activity at 0.634 µM: 6.34 × 10^-7 Molar; for inhibition at 0.0635 µM / activity at 0.0635 µM: 6.35 × 10^-8 Molar; for TI50 (IC/EC), therapeutic index: IC50/EC50; for Conclusion: NCI anti-HIV screen
Description: The aroylaniline compounds of the present invention were subjected to in vitro screening to determine their anti-HIV activity.
The National Cancer Institute's procedure for testing for agents active against Human Immunodeficiency Virus (HIV) (Weislow, O. W. et al., "New soluble-formazan assay for HIV-1 cytopathic effects: application to high-flux screening of synthetic and natural products for AIDS-antiviral activity," J. Natl Cancer Inst., 81, 577-586 (1989)) is designed to detect agents acting at any stage of the virus reproductive cycle. The assay includes the killing of T4 lymphocytes by HIV. Pursuant to the test, small amounts of HIV are added to cells, and a complete cycle of virus reproduction is necessary to obtain the required cell killing. Agents that interact with virions, cells, or virus gene-products to interfere with viral activities will protect cells from cytolysis. The system is thus designed to detect anti-HIV activity. However, compounds that are chemically labile or are rapidly metabolized in the culture conditions may not show activity in this screen. All tests are compared with at least one positive (e.g., AZT-treated) control done at the same time under identical conditions.
(§1) 1. Candidate agent is dissolved in dimethyl sulfoxide (unless otherwise instructed) and then diluted 1:100 in cell culture medium before preparing serial half-log10 dilutions which are then to 96-well microfilter plates. T4 lymphocytes (CEM cell line) are added, and after a brief interval HIV-1 is added to all wells, resulting in a 1:200 final dilution […]. Uninfected cells with the compound serve as a toxicity control, and infected and uninfected cells without the compound serve as basic controls.
(§2) 2. Cultures are incubated at 37° C. in a 5% carbon dioxide atmosphere for 6 days.
(§3) 3. The tetrazolium salt, XTT, is added to all wells, and cultures are incubated to allow formazan color development by viable cells.
(§4) 4. Individual wells are analyzed spectrophotometrically to quantitate formazan production, and in addition are viewed microscopically for detection of viable cells and confirmation of protective activity.
(§5) 5. Drug-tested virus-infected cells are compared with drug-treated noninfected cells and with other appropriate controls (untreated infected and untreated noninfected cells, drug-containing wells without cells, etc.) on the same plate.
6. Data are reviewed in comparison with other tests done at the same time and a determination about activity is made.
The aroylaniline compounds of the present invention were tested for anti-HIV activity according to the above procedure. FIGS. 1-6 represent test results of the aroylaniline compounds of Compounds 1, 3, 13, 14, 29 and 32.
(§6) FIGS. 1 to 6 display a plot of the log10 of the concentrations (as μg/mL or molar as shown) of the aroylaniline compounds, Compounds 1, 3, 13, 14, 29 and 32, against the measured test values expressed as a percentage of the uninfected, untreated control values. The solid line depicts the percentage of surviving HIV-infected cells treated with sample (at the indicated concentration) relative to uninfected, untreated controls. Thus, the solid line expresses the anti-HIV activity of the compound. The dashed line depicts the percentage of surviving uninfected cells treated with the compound relative to the same uninfected, untreated controls. Thus, the dashed line expresses the growth inhibitory properties of the compound. The viral cytopathic effect […] is indicated by a dotted reference line. […] Survival values of this parameter less than 50% are considered acceptable in the current protocol. Approximate values for 50% effective concentration (EC50) have been calculated for each test and are set forth for these Compounds in Tables 2-7, respectively.

[2] = test system: T4 lymphocytes (CEM cell line); assay: toxicity control: survival of uninfected T4 lymphocytes (CEM cell line) treated with compound (growth inhibition); format: cell-based; conditions: Homo sapiens, CCRF-CEM; for IC50: 144 h, read-out: IC50 (Molar); for activity at 0.0635 µM / activity at 0.2 µM / activity at 0.634 µM / activity at 2 µM / activity at 6.33 µM / activity at 20 µM / activity at 63.2 µM / activity at 200 µM: read-out: Percent of Control, Uninfected
Description: as §1, §2, §3, §4, §5, §6

[3] = Human immunodeficiency virus 1, CEM-T4, read-out: Percent of Control, Infected
[4] = Human immunodeficiency virus 1, CEM-T4, 6.32 × 10^-5 Molar, read-out: Percent of Control, Infected

Row | Compound | EC50 [1] [µM] | inhibition at 200 µM [1] [%] | inhibition at 20 µM [1] [%] | inhibition at 2 µM [1] [%] | inhibition at 0.2 µM [1] [%] | inhibition at 6.33 µM [1] [%] | inhibition at 0.634 µM [1] [%] | inhibition at 0.0635 µM [1] [%] | activity at 200 µM [1, 3] [%] | activity at 20 µM [1, 3] [%] | activity at 2 µM [1, 3] [%] | activity at 0.2 µM [1, 3] [%] | activity at 6.33 µM [1, 3] [%] | activity at 0.634 µM [1, 3] [%] | activity at 0.0635 µM [1, 3] [%] | TI50 (IC/EC), therapeutic index [1] | Conclusion [1] | IC50 [2] [µM] | activity at 0.0635 µM [2] [%] | activity at 0.2 µM [2] [%] | further results
1 | O=C(O)CCSCc1cc(C(=O)Nc2ccc(C=Cc3ccc(NC(=O)c4cc(CSCCC(=O)O)c5cccnc5c4O)cc3S(=O)(=O)O)c(S(=O)(=O)O)c2)c(O)c2ncccc12 [Compound 13, 4,4'-di[5-(2-carboxyethylthiomethyl)-8-hydroxy-7-quinolinecarboxyamido]stilbene-2,2'-disulfonic acid tetrasodium salt] | 1.05 | -28 | 67.5 | 84.4 | -17.9 | 134 | 24.6 | 15.6 | 2.7 | 75.3 | 88.1 | 10.4 | 126 | 42.7 | 35.8 | 2.78 × 10^+1 | CONFIRMED ACTIVE | 29 | 86.4 | 90.5 | inhibition at 63.2 µM [1]: 29.4%; activity at 63.2 µM [1, 3]: 1.63%; activity at 0.634 µM [2]: 92.2%; activity at 2 µM [2]: 111%; activity at 6.33 µM [2]: 118%; activity at 20 µM [2]: 73.7%; activity at 63.2 µM [2]: 0.37%; activity at 200 µM [2]: 2.05%
2 | O=C(O)CSCc1cc(C(=O)Nc2ccc(C=Cc3ccc(NC(=O)c4cc(CSCC(=O)O)c5cccnc5c4O)cc3S(=O)(=O)O)c(S(=O)(=O)O)c2)c(O)c2ncccc12 [Compound 14] | 0.805 | 27.6 | 16.6 | 147 | 17.6 | 151 | 25 | 16 | 29.8 | 19.1 | 146 | 20 | 149 | 27.2 | 18.5 | 2.05 × 10^+2 | CONFIRMED ACTIVE | 16.5 | 80.2 | 88.9 | inhibition at 63.2 µM ([1]; 6.32 × 10^-5 Molar): 6.56%; activity at 63.2 µM [1, 4]: 9.36%; activity at 0.634 µM [2]: 122%; activity at 2 µM [2]: 206%; activity at 6.33 µM [2]: 221%; activity at 20 µM [2]: 15.5%; activity at 63.2 µM [2]: 2.52%; activity at 200 µM [2]: -0.84%
3 | O=C([O-])c1c(O)ccc(O)c1C(=O)Nc1ccc(C=Cc2ccc(NC(=O)c3c(O)ccc(O)c3C(=O)[O-])cc2S(=O)(=O)O)c(S(=O)(=O)O)c1.[Na+].[Na+] [Compound 29, 4,4'-di(2-carboxy-3,6-dihydroxybenzamido)stilbene-2,2'-disulfonic acid disodium salt] | 12.5 | 79.7 | 83.3 | 0.58 | -1.09 | 2.47 | -0.52 | -3.31 | 81.1 | 84.5 | 7.54 | 5.99 | 9.3 | 6.52 | 3.92 | > 1.61 × 10^+1 | CONFIRMED ACTIVE | > 220 | 93.2 | 93.8 | inhibition at 63.2 µM ([1]; 6.32 × 10^-5 Molar): 92.7%; activity at 63.2 µM [1, 4]: 93.2%; activity at 0.634 µM [2]: 92.8%; activity at 2 µM [2]: 95.2%; activity at 6.33 µM [2]: 96.7%; activity at 20 µM [2]: 99%; activity at 63.2 µM [2]: 100%; activity at 200 µM [2]: 93%

From patent US5681832A, “Aroylaniline compounds, pharmaceutical compositions, and methods of using same to inhibit viral activity” (priority 1995, dated 1997)
